Patent publication US20240050329A1, “METHODS FOR COSMETIC SKIN REMODELING” (ELC Management LLC, priority 2019, published 2024)
Several values for one entry are separate records, joined by “and”; a condition that tells them apart may be missing. Equal entries are not always repeated. Where two headings read alike, the source gives them in different places. One block for each molecule: values may come before it. Where a SMILES comes first, the peptide text is derived from it.

How the values were obtained:
[1] = Solution-gel (sol-gel) transition of each peptide; assay type: physicochemical
Method: In compositions, the influence of pH of 3 to 9, ionic strength of about 0 M to about 5 M salt concentration (for example, ZnCl2, NaCl etc.) via addition of any monovalent and/or divalent cation or temperature plays a critical role in preventing the self-assembly in formulation. In compositions, the pH maybe in the range of about 3 to 9. In some compositions, the amount of peptide is in a range of about 0.001% to 30% by weight and the temperature of the composition may be in a range of about 19° C. to 42° C.

skin layers = experiment: Triggers of self-assembly within the skin layers
ex vivo skin = experiment: pH dependent peptide self-assembly within intact ex vivo skin (click histology); conditions: propargylglycine versions of the peptides, 0.6 mg/mL, topical, pH 4 to 9
Method: To aid in visualization of the effects of pH and salinity on peptide self-assembly within tissue, peptides were labeled via F-moc chemistry with propargylglycine. Biopsies (12-mm) of abdominal skin explants were isolated, maintained, as stated in example 4, and were treated topically with the propargylglycine labeled peptides ([…]), twice a day for 5 days. The propargylglycine labeled peptides included A6K, IEIK-13, KLD-12, RADA-16, IGVPAG, and VGVPAG.
To determine how pH and salinity influences peptide assembly in the skin, the propargylglycine labeled peptides were prepared at various pH or salinity pH 3 to 9 or containing a salt content of 0.1-3.0%, respectively. The skins were fixed, cryoprotected, cryosectioned (8 μm) and stored at −20° C. until Copper(I)-Catalyzed Alkyne-Azide Cycloaddition (CuAAC), or click chemistry, was performed to detect peptide assembly. Representative results are shown herein.
The sections were washed, mounted with Fluoromount-G plus DAPI, and were imaged using the Zeiss Axio Observer Z1 Fluorescence Motorized Microscope.
Click chemistry is a technique that uses two biologically inert functional groups, an alkyne and an azide, which form a triazole in the presence of Copper(I). The alkyne on the terminus of the peptide negligibly impacts the aspects of molecule that will impact the penetration of the peptide in tissue (i.e. molecular weight, log P, isoelectric point, and self-assembly) allowing for the peptide to penetrate based on its inherent properties. Once the alkyne-peptide is delivered to the tissue, the sample is fixed, and “stained” with an azido-fluorophore. […] This click histology protocol allows for the peptide of interest to be selectively detected via fluorescence microscopy in the presence of endogenous peptides and/or proteins. […]

existing elastin fibers = experiment: Temperature dependent self-assembly of ELPs in decellularized ex vivo dermises (Elastin van Gieson staining, elastin fiber density); conditions: for Elastin fiber integrated density (FIG. 1B): 100 μg/mL, compared to PBS of the same temperature; for Elastin van Gieson staining signal (FIG. 1A): decellularized dermises submerged in 100 μg/mL peptide, five days, 4, 37 or 42° C., compared to PBS
Method: The generation of elastin fibers involves the self-assembly process of coacervation causing an accumulation of hydrophobic tropoelastin molecules prior to being cross-linked at lysines to generate mature elastin fibers. Elastin-like peptides (ELPs) undergo temperature-driven conformational change upon heat referred to as inverse temperature transition (ITT).
Following decellularization, the skins, here after referred to as dermises, were washed three times in PBS buffer (1X) for 2 hours each. The decellularized dermises were submerged in either PBS, 100 μg/mL Pal-VGVAPG, or Ace-IGVAPG, for five days, with daily solution changes. Three ex vivo dermises for each treatment were incubated at 4° C., 37° C., or 42° C. The decellularized dermises were fixed overnight in 10% formalin, paraffin embedded and sections at 8 μm. H&E and Elastin van Gieson staining were performed to confirm decellularization and to visualize elastin fibers, respectively. Elastin fiber density quantification was performed via thresholding the elastin fibers using NIH ImageJ software and measurements were recorded.
H&E staining confirmed that the tissues were successfully decellularized (data not shown). […] FIG. 1A indicates the representative images of Elastin van Gieson stained decellularized dermises which were incubated with Pal-VGVAPG and Ace-IGVAPG at different temperatures while concentration was kept constant (100 μg/mL). Elastin fibers are stained black at a scale bar of 50 μm.
Statistical significance of differences between means was performed using two-way ANOVA followed by Tukey's multiple comparisons test. Error bars represent standard error of the mean (SEM). All analyses were performed using Prism 8 software (GraphPad, San Diego, CA, U.S.A.).

[2] = system: pre-existing elastin fibers; experiment: Concentration driven self-assembly in ex vivo skin treated topically (Elastin van Gieson stain); conditions: topical
Method: Self-assembly of biomolecules is dependent on a critical self-assembly concentration, where self-assembly biomolecules remain as monomers below a critical concentration and assemble above a specific concentration threshold.
Biopsies (12-mm) were treated topically with various concentrations of Ace-IGVAPG or Pal-VGVAPG (12.5, 25, 50 μg/mL) while being maintained in DMEM containing 10% FBS and 1% penicillin/streptomycin/amphotericin B. The skins were formalin fixed, paraffin embedded, sectioned at 8 μm and stain for elastin with the Elastin van Gieson stain.

ex vivo skin biopsies = experiment: Skin elasticity (percent recovery) of ex vivo skin biopsies, TA.XT Plus Texture Analyzer; conditions: 25 μg/mL, 24 h topical treatment
Method: Following 24 hours, the TA.XT Plus Texture Analyzer was used to indent ex vivo skin with a 7-mm cylindrical probe with 40% strain and a withdrawal rate of 0.1 mm/s. The TA.XT Plus software generated a curve representative of the force (g) applied to the probe by the biopsy overtime (sec) and the areas under the curve for the duration of indentation and the withdrawal time of the probe were used to calculate the percent recovery.
A purely elastic material has a percent recovery of 100%. Since skin is viscoelastic, its recovery will never be equal to a pure elastic material, ex vivo skin, for example, has a percent recovery of 25% to 35%.

- Sol-gel transition pH [1]: 5
- Temperature trigger ([1]; sol-gel transition): YES
- C0 for sol-gel transition by weight of the composition (w/w) ([1]; w/w of the composition): 0.5%
- Concentration trigger of self-assembly within the skin layers (skin layers): ≥ 0.5 % w/w
- Temperature trigger of self-assembly within the skin layers (skin layers): 37 °C
- pH trigger of self-assembly within the skin layers (skin layers): 5
SMILES: CCCCCCCCCCCCCCCC(=O)N[C@@H](CCCCN)C(=O)N[C@H](C(=O)N[C@H](C(=O)N[C@@H](CCCCN)C(=O)N[C@@H](CO)C(=O)O)[C@@H](C)O)[C@@H](C)O [PAL-KTTKS, Palmitoyl pentapeptide-4] (HELM PEPTIDE1{[CCCCCCCCCCCCCCCC(=O)[*:2]].K.T.T.K.S}$$$$V2.0)

- Sol-gel transition pH [1]: 5
- C0 for sol-gel transition by weight of the composition (w/w) ([1]; w/w of the composition): 2%
SMILES: CC(C)C[C@H](NC(=O)[C@H](CC(=O)O)NC(=O)[C@H](CC(C)C)NC(=O)[C@H](CCCCN)NC(=O)[C@H](CC(C)C)NC(=O)[C@H](CC(=O)O)NC(=O)[C@H](CC(C)C)NC(=O)[C@H](CCCCN)NC(=O)[C@H](CC(C)C)NC(=O)[C@H](CC(=O)O)NC(=O)[C@H](CC(C)C)NC(=O)[C@@H](N)CCCCN)C(N)=O [KLDLKLDLKLDL, KLD-12] (H-KLDLKLDLKLDL-NH2)
- pH level at which peptide self-assembly was observed within the lower layers of the skin (ex vivo skin): 6

SMILES: CC[C@H](C)[C@H](NC(C)=O)C(=O)NCC(=O)N[C@H](C(=O)N[C@H](C)C(=O)N1CCC[C@H]1C(=O)NCC(=O)O)C(C)C [ACE-IGVAPG, Elastin hexapeptide] (HELM PEPTIDE1{[ac].I.G.V.[dA].P.G}$$$$V2.0)
- Elastin fiber integrated density (FIG. 1B) (existing elastin fibers; 42° C.): significant increase
- Elastin van Gieson staining signal (FIG. 1A) (existing elastin fibers): highest increase at 37 °C
- Elastin intensity (Elastin van Gieson stain, FIG. 2) ([2]; 25 μg/mL): increase
- Elastin intensity (Elastin van Gieson stain, FIG. 2) ([2]; 50 μg/mL): increase
- pH level at which peptide self-assembly was observed within the lower layers of the skin (ex vivo skin): 5 and 7
- Greater recovery than non-treated samples (ex vivo skin biopsies): about 25%
- Percent recovery compared to non-treated controls (FIG. 6B) (ex vivo skin biopsies; p=0.0056): significantly higher

- C0 for sol-gel transition by weight of the composition (w/w) [1]: 1.25%
- Ionic strength trigger [1]: YES
- Sol-gel transition pH [1]: 5
- Temperature trigger [1]: YES
SMILES: CCCCCCCCCCCCCCCC(=O)NCC(=O)N[C@@H](Cc1cnc[nH]1)C(=O)O [PAL-GH, Palmityl dipeptide] (HELM PEPTIDE1{[CCCCCCCCCCCCCCCC(=O)[*:2]].G.H}$$$$V2.0)

- Sol-gel transition pH [1]: 7
- Ionic strength trigger ([1]; sol-gel transition): YES
- C0 for sol-gel transition by weight of the composition (w/w) ([1]; w/w of the composition): 2%
SMILES: C[C@H](NC(=O)[C@H](CC(=O)O)NC(=O)[C@H](C)NC(=O)[C@H](CCCNC(=N)N)NC(=O)[C@H](C)NC(=O)[C@H](CC(=O)O)NC(=O)[C@H](C)NC(=O)[C@H](CCCNC(=N)N)NC(=O)[C@H](C)NC(=O)[C@H](CC(=O)O)NC(=O)[C@H](C)NC(=O)[C@H](CCCNC(=N)N)NC(=O)[C@H](C)NC(=O)[C@H](CC(=O)O)NC(=O)[C@H](C)NC(=O)[C@@H](N)CCCNC(=N)N)C(=O)O [RADARADARADARADA, RADA 16]

- C0 for sol-gel transition by weight of the composition (w/w) [1]: greater than 2%
SMILES: C[C@H](N)C(=O)N[C@@H](C)C(=O)N[C@@H](C)C(=O)N[C@@H](C)C(=O)N[C@@H](C)C(=O)N[C@@H](C)C(=O)N[C@@H](CCCCN)C(N)=O [AAAAAAK, A6K] (H-AAAAAAK-NH2)

- Sol-gel transition pH [1]: 7
- Ionic strength trigger ([1]; sol-gel transition): YES
- Temperature trigger ([1]; sol-gel transition): YES
- C0 for sol-gel transition by weight of the composition (w/w) ([1]; w/w of the composition): 1%
- Concentration trigger of self-assembly within the skin layers (skin layers): > 0.01 % w/w
- Temperature trigger of self-assembly within the skin layers (skin layers): 37 °C
- pH trigger of self-assembly within the skin layers (skin layers): 7
SMILES: CCCCCCCCCCCCCCCC(=O)N[C@H](C(=O)NCC(=O)N[C@H](C(=O)N[C@@H](C)C(=O)N1CCC[C@H]1C(=O)NCC(=O)O)C(C)C)C(C)C [PAL-VGVAPG, Palmitoyl hexapeptide] (HELM PEPTIDE1{[CCCCCCCCCCCCCCCC(=O)[*:2]].V.G.V.A.P.G}$$$$V2.0)
- Elastin fiber integrated density (FIG. 1B) (existing elastin fibers; 37° C.): significant increase
- Elastin fiber integrated density (FIG. 1B) (existing elastin fibers; 42° C.): significant increase
- Elastin van Gieson staining signal (FIG. 1A) (existing elastin fibers): increase in signal as temperature increased
- Elastin intensity (Elastin van Gieson stain, FIG. 2) ([2]; 12.5 μg/mL): increased
- Elastin intensity (Elastin van Gieson stain, FIG. 2) ([2]; 25 μg/mL): increased
- Elastin intensity (Elastin van Gieson stain, FIG. 2) ([2]; 50 μg/mL): increased
- pH level at which peptide self-assembly was observed within the lower layers of the skin (ex vivo skin): 6 and 8

- Sol-gel transition pH [1]: 3
- Temperature trigger ([1]; sol-gel transition): YES
- C0 for sol-gel transition by weight of the composition (w/w) ([1]; w/w of the composition): 2%
SMILES: CC[C@H](C)[C@H](N)C(=O)N[C@@H](CCC(=O)O)C(=O)N[C@H](C(=O)N[C@@H](CCCCN)C(=O)N[C@H](C(=O)N[C@@H](CCC(=O)O)C(=O)N[C@H](C(=O)N[C@@H](CCCCN)C(=O)N[C@H](C(=O)N[C@@H](CCC(=O)O)C(=O)N[C@H](C(=O)N[C@@H](CCCCN)C(=O)N[C@H](C(N)=O)[C@@H](C)CC)[C@@H](C)CC)[C@@H](C)CC)[C@@H](C)CC)[C@@H](C)CC)[C@@H](C)CC [IEIKIEIKIEIKI, IEK-13]
